Data as given in PMC6199744, “Development of Chemical Proteomics for the Folateome and Analysis of the Kinetoplastid Folateome” (ACS Infectious Diseases, 2018).

Test system: L. major lysate proteins
Assay: Multitargeted bead mixture chemoproteomics, single concentration competition, proteome-wide
Format: binding

Nc1nc2[nH]cc(CCc3ccc(C(=O)N[C@@H](CCC(=O)O)C(=O)O)cc3)c2c(=O)[nH]1 [PTX, pemetrexed]
fold change relative to vehicle control (protein LMJF.35.1380, MIT[…], BETA SUBUNIT, PUTATIVE): 0.94 | fold change vs vehicle control (protein LMJF.35.1830 HY[…], CONSERVED): 0.93 | fold change vs vehicle control (protein LMJF.35.3340 6-phosphogluconate dehydrogenase): 1.01 | fold change (protein LMJF.35.3700 GIM5A PROTEIN, PUTATIVE,[…] PROTEIN, vehicle control = 1): 0.93 | fold change vs vehicle control (protein LMJF.35.3760 60S RIBOSOMAL PROTEIN L27A/L29, PUTATIVE): 1.08 | fold change relative to vehicle control (protein LMJF.35.3840, […] 2 SUBUNIT, PUTATIVE): 0.83 | fold change vs vehicle control (protein LMJF.35.3860 T-COMPLEX PROTEIN 1, ETA SUBUNIT, PUTATIVE): 0.97 | fold change (protein LMJF.35.4420 MIT[…] TRANSPORTER, PUTATIVE, vehicle control = 1): 1.01 | fold change relative to vehicle control (protein LMJF.35.4880, HY[…], CONSERVED (TPR repeat, putative)): 1.4 | fold change relative to vehicle control (protein LMJF.35.5330, ISOPENTENYL-D[…]-ISOMERASE, PUTATIVE): 1.04 | fold change relative to vehicle control (protein LMJF.36.0070, STRESS-INDUCIBLE PROTEIN STI1 HOMOLOG): 1.49 | fold change (protein LMJF.36.0480 HY[…], CONSERVED, vehicle control = 1): 0.95 | fold change vs vehicle control (protein LMJF.36.0620 HY[…], CONSERVED): 0.88 | fold change vs vehicle control (protein LMJF.36.0930 40S RIBOSOMAL PROTEIN S18, PUTATIVE): 1.13 | fold change vs vehicle control (protein LMJF.36.0990 40S RIBOSOMAL PROTEIN S10, PUTATIVE): 1.06 | fold change (protein LMJF.36.1140 SHORT CHAIN 3-HYDROXYACYL-COA DEHYDROGENASE, PUTATIVE, vehicle control = 1): 0.9 | fold change relative to vehicle control (protein LMJF.36.1260, FRUCTOSE-1,6-BI[…]): 1.12 | fold change (protein LMJF.36.1340 N-ACETYLT[…] NAT1, PUTATIVE, vehicle control = 1): 0.98 | fold change vs vehicle control (protein LMJF.36.1370 TRANSITIONAL ENDOPLASMIC RETICULUM ATPASE, PUTATIVE,VALOSIN-CONTAINING PROTEIN HOMOLOG): 0.94 | fold change vs vehicle control (protein LMJF.36.1650 […] 5 SUBUNIT, PUTATIVE): 1.01 | fold change relative to vehicle control (protein LMJF.36.2380, STEROL 24-C-METHYLTRANSFERASE, PUTATIVE): 0.95 | fold change vs vehicle control (protein LMJF.36.2950 SUCCINYL-COA LIGASE GDP-FORMING] BETA-CHAIN, PUTATIVE): 0.96 | fold change vs vehicle control (protein LMJF.36.3210 14-3-3 PROTEIN-LIKE PROTEIN): 0.92 | fold change vs vehicle control (protein LMJF.36.3410 SHORT CHAIN DEHYDROGENASE-LIKE PROTEIN): 1.04 | fold change (protein LMJF.36.3460 HY[…], CONSERVED (NIPSNAP, putative), vehicle control = 1): 0.94 | fold change (protein LMJF.36.3580 HY[…], CONSERVED (Protein of unknown function (DUF2009), putative), vehicle control = 1): 1.01 | fold change (protein LMJF.36.3750 40S RIBOSOMAL PROTEIN S27-1, PUTATIVE, vehicle control = 1): 0.86 | fold change vs vehicle control (protein LMJF.36.3910 S-ADENOSYLHO[…]): 0.95 | fold change vs vehicle control (protein LMJF.36.5010 40S RIBOSOMAL PROTEIN SA, PUTATIVE): 1.03 | fold change vs vehicle control (protein LMJF.36.5130 HY[…], CONSERVED): 0.91 | fold change vs vehicle control (protein LMJF.36.5150 HY[…], CONSERVED): 0.87 | fold change relative to vehicle control (protein LMJF.36.5380, NADH DEHYDROGENASE, PUTATIVE): 0.93 | fold change vs vehicle control (protein LMJF.36.5390 PHOSPHORIBOSYLPYR[…], PUTATIVE): 0.98 | fold change vs vehicle control (protein LMJF.36.5620 ISOLEUCYL-TRNA SYNTHETASE, PUTATIVE): 0.96 | fold change (protein LMJF.36.6430 PROTEIN TRANSPORT PROTEIN SEC23-LIKE PROTEIN, vehicle control = 1): 0.86 | fold change vs vehicle control (protein LMJF.36.6760 HY[…], CONSERVED): 0.92 | fold change relative to vehicle control (protein LMJF.[…], MIT[…] BETA SUBUNIT, PUTATIVE): 0.97 | fold change relative to vehicle control (protein LMJF.[…], POLY(A) EXPORT PROTEIN, PUTATIVE): 1.13 | fold change (vs vehicle control, protein LINJ.20.0630 CYTIDINE TR[…], PUTATIVE,CTP SYNTHASE, PUTATIVE): 0.98 | fold change (vs vehicle control, protein LINJ.20.1390 COATOMER BETA SUBUNIT, PUTATIVE): 0.66 | fold change (vs vehicle control, protein LMJF.05.1140 VACUOLAR ATPASE SUBUNIT-LIKE PROTEIN): 0.84 | fold change (vs vehicle control, protein LMJF.07.1090 DELTA-5 FATTY ACID DESATURASE): 0.92 | fold change (vs vehicle control, protein LMJF.09.0220 HY[…], CONSERVED): 0.65 | fold change (vs vehicle control, protein LMJF.11.1030 HY[…], CONSERVED): 0.9 | fold change (vs vehicle control, protein LMJF.14.0640 FATTY ACID ELONGASE, PUTATIVE): 0.83 | fold change (vs vehicle control, protein LMJF.14.0705 FATTY ACID ELONGASE, PUTATIVE): 0.85 | fold change (vs vehicle control, protein LMJF.14.1120 KINESIN K39, PUTATIVE): 0.88 | fold change (vs vehicle control, protein LMJF.16.1610 PROHIBITIN): 1.07 | fold change (vs vehicle control, protein LMJF.17.0010 HY[…], CONSERVED): 0.88 | fold change (vs vehicle control, protein LMJF.18.1130 RAS-RELATED PROTEIN RAB-5, PUTATIVE): 0.65 | fold change (vs vehicle control, protein LMJF.19.1420 CYSTEINE PEPTIDASE A (CPA)): 0.88 | fold change (vs vehicle control, protein LMJF.21.0280 HY[…], CONSERVED): 0.88 | fold change (vs vehicle control, protein LMJF.22.1560 40S RIBOSOMAL PROTEIN L14, PUTATIVE): 0.87 | fold change (vs vehicle control, protein LMJF.23.1220 T-COMPLEX PROTEIN 1, GAMMA SUBUNIT, PUTATIVE): 0.94 | fold change (vs vehicle control, protein LMJF.24.0370 ASPARTATE AMINOTRANSFERASE, PUTATIVE): 1.06 | fold change (vs vehicle control, protein LMJF.25.1770 ENOYL-COA REDUCTASE, PUTATIVE): 1.06 | fold change (vs vehicle control, protein LMJF.26.0170 60S RIBOSOMAL PROTEIN L7, PUTATIVE): 0.79 | fold change (vs vehicle control, protein LMJF.26.1550 TRIFUNCTIONAL ENZYME ALPHA SUBUNIT, MIT[…]-LIKE PROTEIN): 1.12 | fold change (vs vehicle control, protein LMJF.26.1610 PROLINE OXIDASE, MIT[…]-LIKE PROTEIN): 0.89 | fold change (vs vehicle control, protein LMJF.28.1950 X-PRO, DIPEPTIDYL-PEPTIDASE,SERINE PEPTIDASE, CLAN SC, FAMILY S15, PUTATIVE): 0.74 | fold change (vs vehicle control, protein LMJF.31.1070 BIOTIN/LIPOATE PROTEIN LIGASE-LIKE PROTEIN): 0.65 | fold change (vs vehicle control, protein LMJF.32.1370 HY[…], CONSERVED): 0.79 | fold change (vs vehicle control, protein LMJF.34.0490 IMPORTIN BETA-1 SUBUNIT, PUTATIVE): 0.77 | fold change (vs vehicle control, protein LMJF.34.4060 UBIQUITIN HYDROLASE, PUTATIVE,CYSTEINE PEPTIDASE, CLAN CA, FAMILY C19, PUTATIVE): 0.78 | fold change (vs vehicle control, protein LMJF.36.1600 […] 1 SUBUNIT, PUTATIVE): 0.85 | fold change (vs vehicle control, protein LMJF.[…] RIBOSOMAL PROTEIN S7, PUTATIVE): 1.19
